Results: patent US5183821A, “Method for treating leukemias using N-(2-dimethylaminoethyl)-3-amino-1,8-naphthalimide for treating leukemias and solid tumors” (priority 1991, dated 1993)
“Also recorded” adds a separate entry of the source.

Experiments:
L-1210 Lymphoid leukemia [1] = test: Experiment 6: L-1210 i.p., 10^4 cells, saline with Tween-80, male; format: in vivo, Mouse CD2 F1 (CDF1)
Source text: (§1) Host: Mouse CD2 F1 (CDF1)
(§2) Tumor: L-1210 Lymphoid leukemia
(§3) Inoculum Site: Intraperitoneal
(§4) Vehicle: Saline with Tween-80
(§5) Treatment schedule (relative to tumor inoculation day): daily on days 1-9
(§6) Day of evaluation (relative to tumor inoculation day): 30
(§7) Parameter: Median survival time (MST) in days
(§8) NCI minimal activity criteria: Percent T/C≥125
(§9) Percent T/C: Ratio of test (T) evaluation to control (C) evaluation expressed as a percentage

L-1210 Lymphoid leukemia [2] = test: Experiment 3: L-1210 i.p., 10^5 cells, saline with Tween-80, male; format: in vivo, Mouse CD2 F1 (CDF1)
Source text: as §1, §2
Inoculum Site: intraperitoneal
as §4
Treatment schedule (relative to tumor inoculation day) daily on days 1-9
as §6
Parameter: Mean survival time (MST) in days.
as §8, §9

B16 Melanocarcinoma = test: Experiment 18: B16 i.p., saline with Tween-80, male; format: in vivo, Mouse B6 C3 F1
Source text: Tumor: B16 Melanocarcinoma
as §3
Tissue: Homogenate (or brei), tumor
as §4, §5
Day of evaluation (relative to tumor inoculation day): 60
as §7, §8, §9

[3] = system: P388 Lymphocytic leukemia; test: Experiment 11: P388 i.p., 10^6 cells, saline with Tween-80, female; format: in vivo, Mouse CD2 F1 (CDF1)
Source text: as §1
Tumor: P388 Lymphocytic leukemia
as §3, §4, §5, §6, §7
(§10) NCI minimal activity criteria: Percent T/C≥120
as §9

Fischer 344 rats = test: Single dose rat toxicity study; format: in vivo; details: for toxicity summary, rats: single dose i.v. (X1)
Experimental: Preclinical toxicity studies of BIDA were completed in CD2F1 Mice, Fischer 344 rats and beagle dogs (4). The animals were injected IV with a single bolus or daily for five days.
A preclinical toxicology study of benzisoquinolinedione (NSC-308847) was done at Springborn Institute for Bioresearch, Inc. using CD2 F1 mice, Fischer 344 rats and beagle dogs. Animals were injected intravenously on a single dose (X1) or five daily dose (X5) regimen. Bulk drug was titrated with 0.5N HCl to form a salt solution of benzisoquinolinedione at a pH of 5.0-6.5. Sterile 0.9% saline was used for diluting the dosing solutions and was used for the vehicle control animals.
The following summarizes the major organ toxicities resulting from IV administration of benzisoquinolinedione to rats.

[4] = format: physicochemical
Source text: (§11) Stability: The reconstituted solution is stable for 14 days at room temperature. When further diluted 200-fold with normal saline the drug remains stable for 14 days at both room and refrigeration temperatures. The reconstituted solution is not stable when further diluted with 5% dextrose in water so this vehicle will not be used for infusions of the drug. Storage: The intact vials should be stored under refrigeration.
as §11, with “saline the drugs remains stable” for “saline the drug remains stable”

[5] = parameters: species or system human
Source text: Further studies were done using heparinized plasma (two additional human donors) and with EDTA plasma (one donor). […] Human EDTA plasma was compatible with drug at a 1:32 drug/plasma ratio.

[6] = system: P 388 Lymphocytic leukemia; test: Experiment 10: P388 i.p., 10^6 cells, saline with Tween-80, male; format: in vivo, Mouse CD2F1 (CDF1)
Source text: Tumor: P 388 Lymphocytic leukemia
as §3, §4, §5, §6, §7, §10, §9

Lewis lung carcinoma = test: NCI screen, Lewis lung carcinoma, intravenous (summary); format: in vivo, Mouse; details: for Antitumor activity in words: Lewis lung carcinoma
Source text: The activity of the compound has been evaluated by experiments carried out under the auspices of the Division of Cancer Treatment, National Cancer Institute, employing techniques considered to be reliable indicators of chemotherapeutic utility in the treatment of forms of cancer in human patients. The details of the methodology employed in the reported experiments may be determined with reference to established NCI screening methods. In the experiments conducted by the NCI, evaluation of activity is made on the basis of appropriate parameters, such as median survival time (MST) or change in average tumor diameter (CATD)in ocular micrometer units (OMU).

L-1210 Lymphoid leukemia [7] = test: Experiment 9: L-1210 i.p., 10^5 cells, saline with Tween-80, male; format: in vivo, CD2F1 (CDF)
Source text: as §2, §3, §4, §5, §6
Parameter: Mean survival time (MST) in days
as §8, §9

[8] = 15.0 mg/kg, listed as benzisoquinolinedione

In the case of CN(C)CCN1C(=O)c2cccc3cc(N)cc(c23)C1=O [Example 9, 1H-Benz[de]isoquinoline-1,3(2H)-dione, 5-amino-2-[2-(dimethylamino)ethyl]], the “Median survival time (MST)” value (L-1210 Lymphoid leukemia [1]; 2.00 mg/kg i.p.) is reported as 9.7 days, the “Percent T/C” value (L-1210 Lymphoid leukemia [1]; 2.00 mg/kg i.p.) is reported as 105% and the “Median survival time (MST)” value (L-1210 Lymphoid leukemia [1]; 4.00 mg/kg i.p.) is reported as 10.7 days. For the same molecule, the “Percent T/C” value (L-1210 Lymphoid leukemia [1]; 4.00 mg/kg i.p.) was 116%, the “Median survival time (MST)” value (L-1210 Lymphoid leukemia [1]; 8.00 mg/kg i.p.) was 12.0 days and the “Percent T/C” value (L-1210 Lymphoid leukemia [1]; 8.00 mg/kg i.p.) was 130%. The “Median survival time (MST)” value (L-1210 Lymphoid leukemia [1]; 16.00 mg/kg i.p.) was 19.0 days, the “Percent T/C” value (L-1210 Lymphoid leukemia [1]; 16.00 mg/kg i.p.) was 200% and the “Median survival time (MST)” value (L-1210 Lymphoid leukemia [1]; 32.00 mg/kg i.p.) was 8.3 days. For the same molecule, the “Percent T/C” value (L-1210 Lymphoid leukemia [1]; 32.00 mg/kg i.p.) was 90%, the “Mean survival time (MST)” value (L-1210 Lymphoid leukemia [2]; 1.00 mg/kg i.p.) was 7.5 days and the “Percent T/C” value (L-1210 Lymphoid leukemia [2]; 1.00 mg/kg i.p.) was 92%. The “Mean survival time (MST)” value (L-1210 Lymphoid leukemia [2]; 2.00 mg/kg i.p.) was 8.3 days, the “Percent T/C” value (L-1210 Lymphoid leukemia [2]; 2.00 mg/kg i.p.) was 102% and the “Mean survival time (MST)” value (L-1210 Lymphoid leukemia [2]; 4.00 mg/kg i.p.) was 8.7 days. For the same molecule, the “Percent T/C” value (L-1210 Lymphoid leukemia [2]; 4.00 mg/kg i.p.) was 107%, the “Mean survival time (MST)” value (L-1210 Lymphoid leukemia [2]; 8.00 mg/kg i.p.) was 10.2 days and the “Percent T/C” value (L-1210 Lymphoid leukemia [2]; 8.00 mg/kg i.p.) was 125%. For the same molecule, the “Mean survival time (MST)” value (L-1210 Lymphoid leukemia [2]; 16.00 mg/kg i.p.) was 14.2 days, the “Percent T/C” value (L-1210 Lymphoid leukemia [2]; 16.00 mg/kg i.p.) was 175% and the “Mean survival time (MST)” value (L-1210 Lymphoid leukemia [2]; 32.00 mg/kg i.p.) was 7.8 days. The “Percent T/C” value (L-1210 Lymphoid leukemia [2]; 32.00 mg/kg i.p.) was 96%, the “Median survival time (MST)” value (B16 Melanocarcinoma; 4.00 mg/kg i.p.) was 22.0 days and the “Percent T/C” value (B16 Melanocarcinoma; 4.00 mg/kg i.p.) was 113%. For the same molecule, the “Median survival time (MST)” value (B16 Melanocarcinoma; 8.00 mg/kg i.p.) was 23.2 days, the “Percent T/C” value (B16 Melanocarcinoma; 8.00 mg/kg i.p.) was 120% and the “Median survival time (MST)” value (B16 Melanocarcinoma; 16.00 mg/kg i.p.) was 27.0 days. For the same molecule, the “Percent T/C” value (B16 Melanocarcinoma; 16.00 mg/kg i.p.) was 139%, the “Median survival time (MST)” value (B16 Melanocarcinoma; 32.00 mg/kg i.p.) was 6.3 days and the “Median survival time (MST)” value ([3]; 8.00 mg/kg i.p.) was 17.0 days. The “Percent T/C” value ([3]; 8.00 mg/kg i.p.) was 144%, the “Median survival time (MST)” value ([3]; 16.00 mg/kg i.p.) was 21.0 days and the “Percent T/C” value ([3]; 16.00 mg/kg i.p.) was 177%. For the same molecule, the “Median survival time (MST)” value ([3]; 32.00 mg/kg i.p.) was 7.3 days, the “Median survival time (MST)” value ([3]; 65.00 mg/kg i.p.) was 6.4 days and the Mortality / lethality (Fischer 344 rats; 15.0 mg/kg (1/2MELD10), single) was 0/20. For the same molecule, the Hematologic findings (Fischer 344 rats; [8]) was “Mild decreases in leukocytes were seen in males on day 4; also recorded: mild decreases in reticulocytes were seen in females”, the Microscopic hematologic lesions (Fischer 344 rats; [8]) was “mild diffuse thymic atrophy in three male rats on day 4; also recorded: No hematologic lesions were seen in either sex on day 29” and the Microscopic hematologic lesions (Fischer 344 rats; 30.0 mg/kg, day 4 and day 29, listed as benzisoquinolinedione) was “moderate to marked diffuse bone marrow atrophy and mild to moderate diffuse thymic atrophy; also recorded: by day 29, no hematologic lesions were found”. The Reproductive findings (Fischer 344 rats; 30.0 mg/kg, day 29) was “All five long-term male rats showed decreased testicular weights”, the Hematologic findings (Fischer 344 rats; 30.0 mg/kg, listed as benzisoquinolinedione) was “Mild decreases in hemoglobin, hematocrit and red blood cells were seen in females on days 4 and 8, but not in males; also recorded: moderate decreases in reticulocytes and leukocytes on day 4 with moderate increases following on day 8” and the “mild diffuse testicular atrophy, incidence” value (Fischer 344 rats; 30.0 mg/kg, males, day 29) was “four of five”. The Mortality / lethality (Fischer 344 rats; 35.0 mg/kg (MELD50), single) was 0/20, the Microscopic hematologic lesions (Fischer 344 rats; 35.0 mg/kg, day 4) was “marked to severe diffuse bone marrow atrophy and mild to moderate diffuse thymic atrophy” and the Reproductive findings (Fischer 344 rats; 35.0 mg/kg, day 29, listed as benzisoquinolinedione) was “All five male rats showed decreased testicular weights and mild diffuse testicular atrophy; also recorded: No reproductive lesions were seen in females”. The Hematologic findings (Fischer 344 rats; 35.0 mg/kg, listed as benzisoquinolinedione) was “Mild decreases in hemoglobin, hematocrit and red blood cells; also recorded: moderate decreases in reticulocytes in both sexes on day 4, followed by moderate increases on day 8; also recorded: Leukopenia (both lymphocytes and neutrophils); also recorded: Both sexes were comparable to controls on days 22 and 29”, the Mortality / lethality (Fischer 344 rats; MELD10, single, 30.0 mg/kg in text, 20.00 in Table 4) was 0/20 and the “toxicity summary, rats” value (Fischer 344 rats; listed as BIDA) was “reproductive system toxicity was seen at doses of MELD 10 and higher; also recorded: decreased testicular weights and mild diffuse testicular atrophy”. For the same molecule, the “toxicity summary, rats” value (Fischer 344 rats; listed as benzisoquinolinedione) was “toxic on both schedules (X1, X5) to the hematopoietic system and to the male reproductive system”, the “stability of reconstituted solution” value [4] was 14 days and the “stability, diluted 200-fold with normal saline” value [4] was 14 days. The “stability, diluted with 5% dextrose in water” value [4] was “not stable”, the blood compatibility [5] was “compatible” and the “Median survival time (MST)” value ([6]; 2.00 mg/kg i.p.) was 13.3 days. For the same molecule, the “Percent T/C” value ([6]; 2.00 mg/kg i.p.) was 135%, the “Median survival time (MST)” value ([6]; 4.00 mg/kg i.p.) was 14.0 days and the “Percent T/C” value ([6]; 4.00 mg/kg i.p.) was 142%. For the same molecule, the “Median survival time (MST)” value ([6]; 8.00 mg/kg i.p.) was 17.3 days, the “Percent T/C” value ([6]; 8.00 mg/kg i.p.) was 176% and the “Median survival time (MST)” value ([6]; 16.00 mg/kg i.p.) was 13.0 days. For the same molecule, the “Percent T/C” value ([6]; 16.00 mg/kg i.p.) was 132%, the “Median survival time (MST)” value ([6]; 32.00 mg/kg i.p.) was 6.1 days and the “Antitumor activity in words” value (Lewis lung carcinoma; listed as BIDA) was “not active”. For the same molecule, the “Antitumor activity in words” value (Lewis lung carcinoma; listed as the compound) was “not observed to be effective”, the “Table II evaluation” value (Lewis lung carcinoma; median survival time, 12 tests, full wrapped cell: Activity not confirmed) was “Activity not” and the “Mean survival time (MST)” value (L-1210 Lymphoid leukemia [7]; 1.00 mg/kg i.p.) was 9.0 days. The “Percent T/C” value (L-1210 Lymphoid leukemia [7]; 1.00 mg/kg i.p.) was 104%, the “Mean survival time (MST)” value (L-1210 Lymphoid leukemia [7]; 2.00 mg/kg i.p.) was 8.7 days and the “Percent T/C” value (L-1210 Lymphoid leukemia [7]; 2.00 mg/kg i.p.) was 101%. For the same molecule, the “Mean survival time (MST)” value (L-1210 Lymphoid leukemia [7]; 4.00 mg/kg i.p.) was 9.3 days, the “Percent T/C” value (L-1210 Lymphoid leukemia [7]; 4.00 mg/kg i.p.) was 108% and the “Mean survival time (MST)” value (L-1210 Lymphoid leukemia [7]; 8.00 mg/kg i.p.) was 11.7 days. For the same molecule, the “Percent T/C” value (L-1210 Lymphoid leukemia [7]; 8.00 mg/kg i.p.) was 136%, the “Mean survival time (MST)” value (L-1210 Lymphoid leukemia [7]; 16.00 mg/kg i.p.) was 17.0 days and the “Percent T/C” value (L-1210 Lymphoid leukemia [7]; 16.00 mg/kg i.p.) was 197%. For the same molecule, the “Mean survival time (MST)” value (L-1210 Lymphoid leukemia [7]; 32.00 mg/kg i.p.) was 7.7 days and the “Percent T/C” value (L-1210 Lymphoid leukemia [7]; 32.00 mg/kg i.p.) was 89%.
